Measured values taken from patent US20110045101A1, “FUNGICIDAL SUBSTITUTED AZOLES” (E.I. Du Pont De Nemours and Company, priority 2009, published 2011).
Marks after values point to notes of the source that are not given here.

Key:
Type in all cases: in vivo
Conditions in all cases: 100 = 100% disease control
[1] = tested on: Alternaria solani; assay: Test D: tomato early blight, sprayed the day before inoculation, visual disease rating
Outline: (§1)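 Compounds were dissolved in acetone (3% of final volume), then suspended in 50/50 acetone/water with 250 ppm Trem 014 surfactant and sprayed to run-off on test plants. A 200 ppm suspension equals 500 g/ha. Ratings are at 200 ppm unless flagged as 40 ppm.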

[2] = tested on: Puccinia recondita f. sp. tritici; assay: Test I: wheat leaf rust on wheat seedlings, sprayed the day before inoculation, visual disease rating
Outline: as §1

[3] = tested on: Septoria nodorum; assay: Test F: wheat glume blotch on wheat seedlings, sprayed the day before inoculation, visual disease rating
Outline: as §1

[4] = tested on: Botrytis cinerea; assay: Test C: tomato Botrytis on tomato seedlings, sprayed the day before inoculation, visual disease rating
Outline: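 Tomato seedlings sprayed to run-off with compound suspended in acetone/water with 250 ppm Trem 014 surfactant, at 200 ppm (≈500 g/ha) or 40 ppm where marked, one day before Botrytis cinerea inoculation. Disease rated visually.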

[5] = tested on: Erysiphe graminis f. sp. tritici; assay: Test J: wheat powdery mildew on wheat seedlings, sprayed the day before inoculation, visual disease rating
Outline: as §1

[6] = tested on: Puccinia recondita f. sp. tritici; assay: Test H: wheat leaf rust, test suspension sprayed after inoculation of wheat seedlings, visual disease rating
Outline: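 Wheat seedlings inoculated with P. recondita spores, held 24 h saturated at 20 °C, then 2 days in growth chamber at 20 °C; compound suspension (acetone/water with Trem 014) sprayed to run-off afterwards. Rated visually; 200 ppm (≈500 g/ha) unless marked *, which denotes 40 ppm.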

[7] = tested on: Septoria tritici; assay: Test G: wheat leaf blotch on wheat seedlings, sprayed the day before inoculation, visual disease rating
Outline: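 Wheat seedlings were sprayed with compound suspensions, 200 ppm unless starred (40 ppm). After next-day spore inoculation, plants spent 48 h saturated at 24° C, then 19 days at 20° C, when disease was rated visually.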

[8] = 40 ppm (marked *), 0 = no control
[9] = 200 ppm, 0 = no control relative to controls

## N#Cc1ccc(F)c(-c2c(Cl)ncn2-c2ccc(Cl)cc2)c1F [Compound 386, 3-[4-chloro-1-(4-chlorophenyl)-1H-imidazol-5-yl]-2,4-difluorobenzonitrile]
[1]; Alternaria solani, 168 h, 200 ppm, 0 = no control relative to controls
  pest or weed control at 200 ppm: 100%
[2]; Puccinia recondita, 168 h, 200 ppm, 0 = no control relative to controls
  pest or weed control at 200 ppm: 98%
[3]; Parastagonospora nodorum, 264 h, 200 ppm, 0 = no control relative to controls
  pest or weed control at 200 ppm: 0%
[4]; Botrytis cinerea, 120 h, 200 ppm, 0 = no control relative to controls
  pest or weed control at 200 ppm: 99%
[5]; Blumeria graminis, 168 h, 200 ppm, 0 = no control relative to controls
  pest or weed control at 200 ppm: 95%
[6]; Puccinia recondita, 96 h, 200 ppm, 0 = no control relative to controls
  pest or weed control at 200 ppm: 0%
[7]; Zymoseptoria tritici, 504 h, 200 ppm, 0 = no control relative to controls
  pest or weed control at 200 ppm: 96%

## COc1ccc(F)c(-c2c(Cl)nc(C)n2-c2ccc(F)cc2)c1F [compound 334]
[1]; [8]
  Test D disease control rating: 100* %
[2]; [8]
  Test I disease control rating: 100* %
[3]; [8]
  Test F disease control rating: 90* %
[4]; [8]
  Test C disease control rating: 100* %
[5]; [8]
  Test J disease control rating: 100* %
[6]; [8]
  Test H disease control rating: 0* %
[7]; [8]
  Test G disease control rating: 93* %

## Cc1ccc(-n2c(Cl)nc(Cl)c2-c2c(F)cccc2F)nc1 [compound 577]
[1]; [9]
  Test D disease control rating: 100%
[2]; [9]
  Test I disease control rating: 100%
[3]; [9]
  Test F disease control rating: 87%
[4]; [9]
  Test C disease control rating: 100%
[5]; [9]
  Test J disease control rating: 100%
[6]; [9]
  Test H disease control rating: 97%
[7]; [9]
  Test G disease control rating: 100%

## Fc1cccc(F)c1-n1c(-c2ccc(Cl)cc2)cnc1Cl [compound 341]
[1]; [8]
  Test D disease control rating: 24* %
[2]; [8]
  Test I disease control rating: 0* %
[3]; [8]
  Test F disease control rating: 0* %
[4]; [8]
  Test C disease control rating: 91* %
[5]; [8]
  Test J disease control rating: 0* %
[6]; [8]
  Test H disease control rating: 9* %
[7]; [8]
  Test G disease control rating: 0* %

## Fc1ccc(-n2c(Cl)nc(Br)c2-c2c(F)ccc(F)c2F)cc1 [compound 352]
[1]; [9]
  Test D disease control rating: 100%
[2]; [9]
  Test I disease control rating: 97%
[3]; [9]
  Test F disease control rating: 87%
[4]; [9]
  Test C disease control rating: 100%
[5]; [9]
  Test J disease control rating: 77%
[6]; [9]
  Test H disease control rating: 18%
[7]; [9]
  Test G disease control rating: 92%

## Cc1nc(Cl)n(-c2ccc(Cl)c(F)c2)c1-c1sc(Cl)nc1Cl [compound 381]
[1]; [9]
  Test D disease control rating: 0%
[2]; [9]
  Test I disease control rating: 0%
[3]; [9]
  Test F disease control rating: 0%
[4]; [9]
  Test C disease control rating: 94%
[5]; [9]
  Test J disease control rating: 0%
[6]; [9]
  Test H disease control rating: 0%
[7]; [9]
  Test G disease control rating: 78%

## Fc1ccc(F)c(-c2c(Br)nc(Cl)n2-c2ccc(Cl)cc2)c1Cl [compound 385]
[1]; [8]
  Test D disease control rating: 99* %
[2]; [8]
  Test I disease control rating: 95* %
[3]; [8]
  Test F disease control rating: 0* %
[4]; [8]
  Test C disease control rating: 99* %
[5]; [8]
  Test J disease control rating: 99* %
[6]; [8]
  Test H disease control rating: 0* %
[7]; [8]
  Test G disease control rating: 95* %

## COc1cc(F)c(-c2c(Cl)ncn2-c2cccc(Cl)c2)c(F)c1 [compound 497]
[1]; [9]
  Test D disease control rating: 99%
[2]; [9]
  Test I disease control rating: 100%
[3]; [9]
  Test F disease control rating: 100%
[4]; [9]
  Test C disease control rating: 97%
[5]; [9]
  Test J disease control rating: 100%
[6]; [9]
  Test H disease control rating: 0%
[7]; [9]
  Test G disease control rating: 97%

## COc1cc(F)c(-c2c(Br)ncn2-c2ccc(F)cc2)c(F)c1 [compound 506]
[1]; [9]
  Test D disease control rating: 100%
[2]; [9]
  Test I disease control rating: 100%
[3]; [9]
  Test F disease control rating: 92%
[4]; [9]
  Test C disease control rating: 100%
[5]; [9]
  Test J disease control rating: 99%
[6]; [9]
  Test H disease control rating: 78%
[7]; [9]
  Test G disease control rating: 99%

## Cc1nc(Cl)n(-c2ccc(Cl)cc2)c1-c1c(F)ccc(F)c1Cl [compound 414]
[1]; [8]
  Test D disease control rating: 99* %
[2]; [8]
  Test I disease control rating: 93* %
[3]; [8]
  Test F disease control rating: 0* %
[4]; [8]
  Test C disease control rating: 99* %
[5]; [8]
  Test J disease control rating: 100* %
[6]; [8]
  Test H disease control rating: 0* %
[7]; [8]
  Test G disease control rating: 96* %

## COc1cc(F)c(-c2c(Cl)nc(Cl)n2-c2ccc(NC(C)=O)nc2)c(F)c1 [compound 673]
[1]; [9]
  Test D disease control rating: 100%
[2]; [9]
  Test I disease control rating: 100%
[3]; [9]
  Test F disease control rating: 99%
[4]; [9]
  Test C disease control rating: 99%
[5]; [9]
  Test J disease control rating: 90%
[6]; [9]
  Test H disease control rating: 9%
[7]; [9]
  Test G disease control rating: 99%
